The results in this text go back to ChEMBL document CHEMBL5046311, “Photoaffinity Probe Reveals the Potential Target of Harringtonolide for Cancer Cell Migration Inhibition” (ACS Med Chem Lett, 2022).

Molecules are shown by their SMILES. The source made the active and inactive calls. No cut-off for these calls is given here.

As a reminder, the IC50 is the point on the concentration scale where inhibition reaches its midpoint.

The nature of series [1]: Stability of the compound in DMEM medium with 10% fetal bovine serum assessed as parent compound remaining at 200 uM incubated upto 24 hrs by HLPC analysis. The class given is ADME, cell-free. Particulars: cattle, read-out: Stability.
Series [2] relates to A-375. The experiment in a line: Antiproliferative activity against human A-375 cells assessed as reduction in cell viability at 1.5625 to 50 uM after 24 hrs by MTT assay. Particulars: dose 1.5625-50 µM. The format is functional, cell-based. On the technique in general: Tetrazolium assays rely on reduction of a dye to a coloured formazan, in cell work by metabolically active cells.

A short description of series [3]: Drug degradation in DMEM medium with 10% fetal bovine serum assessed as compound hydrolysis at 200 uM incubated upto 24 hrs by HLPC analysis. The class given is ADME, cell-free. Particulars: cattle, read-out: Drug degradation.
For series [4], the system named is A-375. As to the kind of experiment: Inhibition of cell invasion in human A-375 cells at measured after 24 hrs by crystal violet staining based imaging analysis. The class given is functional. Conditions: dose 0.5-2 µM.
Series [5] deals with A-375. The experiment in a line: Binding affinity to RACK1 in human A-375 cells at 10 uM preincubated for 4 hrs in the presence of harringtonolide followed by irradiation with UV for 30 mins measured by Western blotting based pull-down assay. The class given is cell-based. Conditions: time 4.5 hrs. In general terms: In western blotting, separated proteins are transferred to a membrane and probed.

Series [6] relates to A-375. As to the kind of experiment: Inhibition of cell migration in human A-375 cells at measured after 24 hrs by phase contrast microscopy based wound healing assay. The format is functional. Particulars: dose 0.5-2 µM.
Series [7] has as its system A-375. The experiment in a line: Binding affinity to RACK1 in human A-375 cells at 10 uM preincubated for 4 hrs followed by irradiation with UV for 30 mins measured by Western blotting based pull-down assay. The format is cell-based. Conditions: time 4.5 hrs.
The test system of series [8] is A-375. The experiment in a line: Antiproliferative activity against human A-375 cells assessed as reduction in cell viability upto 50 uM after 24 hrs by MTT assay. The format is functional, cell-based. Particulars: dose microM <=50, time 24.0 hrs.
For series [9], the system named is A-375. The experiment in a line: Inhibition of epithelial-mesenchymal transition in human A-375 cells assessed as downregulation of N-cadherin expression at 0.5 to 4 uM measured after 24 hrs by Western blotting analysis. The format is functional, cell-based. Particulars: dose 0.5-4 µM.
Series [10] concerns the target Focal adhesion kinase 1 (Homo sapiens) (UniProt Q05397). The experiment in a line: Inhibition of FAK in human A-375 cells assessed as reduction in STAT3 activation at 0.5 to 4 uM measured after 24 hrs by Western blotting analysis. The class given is cell-based. Particulars: dose 0.5-4 µM.
The subject of series [11] is A-375. The experiment in a line: Antiproliferative activity against human A-375 cells assessed as reduction in cell viability after 24 hrs by MTT assay. The format is functional, cell-based. Conditions: A-375, 24 h.
For series [12], the system named is A-375. The experiment in a line: Inhibition of RACK1-FAK protein-protein interaction in human A-375 cells measured after 24 hrs by co-immunoprecipitation assay. The class given is cell-based. Particulars: dose 2-4 µM.
For series [13], the system named is A-375. As to the kind of experiment: Inhibition of epithelial-mesenchymal transition in human A-375 cells assessed as downregulation of Snail expression at 0.5 to 4 uM measured after 24 hrs by Western blotting analysis. The format is functional, cell-based. Conditions: dose 0.5-4 µM.
Series [14] concerns A-375. The experiment in a line: Binding affinity to RACK1 in human A-375 cells assessed as prevention of temperature dependent protein degradation at 10 uM preincubated for 60 mins at room temperature followed by heat treatment at 45 to 63 degree C for 5 mins measured by immunoblotting based cellular thermal shift assay. The class given is cell-based.
Series [15] relates to A-375. As to the kind of experiment: Inhibition of epithelial-mesenchymal transition in human A-375 cells assessed as upregulation of E-cadherin expression at 0.5 to 4 uM measured after 24 hrs by Western blotting analysis. Particulars: dose 0.5-4 µM. The class given is functional, cell-based.
In series [16] the target is Signal transducer and activator of transcription 3 (Homo sapiens) (UniProt P40763). As to the kind of experiment: Inhibition of STAT3 in human A-375 cells assessed as decrease in c-Myc protein level at 0.5 to 4 uM measured after 24 hrs by western blot analysis. Particulars: dose 0.5-4 µM. The format is cell-based.
Chain of Signal transducer and activator of transcription 3 (Homo sapiens) (P40763 whole entry): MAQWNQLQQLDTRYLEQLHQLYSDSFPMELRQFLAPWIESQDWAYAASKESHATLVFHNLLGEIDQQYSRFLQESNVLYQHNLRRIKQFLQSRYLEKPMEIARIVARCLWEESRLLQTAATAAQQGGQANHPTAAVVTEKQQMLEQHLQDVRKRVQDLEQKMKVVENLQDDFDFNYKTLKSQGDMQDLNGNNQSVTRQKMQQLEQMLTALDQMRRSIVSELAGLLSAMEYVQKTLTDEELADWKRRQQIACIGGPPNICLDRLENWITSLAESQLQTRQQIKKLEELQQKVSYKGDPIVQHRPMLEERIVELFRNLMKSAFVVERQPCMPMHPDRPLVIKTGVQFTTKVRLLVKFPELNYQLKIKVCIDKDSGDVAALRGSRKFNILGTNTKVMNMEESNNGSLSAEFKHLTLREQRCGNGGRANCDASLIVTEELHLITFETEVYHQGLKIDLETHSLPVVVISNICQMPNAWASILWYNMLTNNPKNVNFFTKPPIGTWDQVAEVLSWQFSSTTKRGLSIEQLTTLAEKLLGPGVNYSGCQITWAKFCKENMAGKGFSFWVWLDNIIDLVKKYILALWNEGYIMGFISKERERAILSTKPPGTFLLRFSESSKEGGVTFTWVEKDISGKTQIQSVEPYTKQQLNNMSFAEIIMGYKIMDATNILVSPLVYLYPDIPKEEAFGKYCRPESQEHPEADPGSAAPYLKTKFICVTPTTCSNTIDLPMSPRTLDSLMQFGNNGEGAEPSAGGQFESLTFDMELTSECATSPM
Series [17] deals with Focal adhesion kinase 1 (Homo sapiens) (UniProt Q05397). As to the kind of experiment: Inhibition of FAK phosphorylation in human A-375 cells measured after 24 hrs by Western blotting analysis. The format is cell-based. Conditions: dose 0.5-4 µM.
Chain of Focal adhesion kinase 1 (Homo sapiens) (Q05397 2-1052 limits assumed): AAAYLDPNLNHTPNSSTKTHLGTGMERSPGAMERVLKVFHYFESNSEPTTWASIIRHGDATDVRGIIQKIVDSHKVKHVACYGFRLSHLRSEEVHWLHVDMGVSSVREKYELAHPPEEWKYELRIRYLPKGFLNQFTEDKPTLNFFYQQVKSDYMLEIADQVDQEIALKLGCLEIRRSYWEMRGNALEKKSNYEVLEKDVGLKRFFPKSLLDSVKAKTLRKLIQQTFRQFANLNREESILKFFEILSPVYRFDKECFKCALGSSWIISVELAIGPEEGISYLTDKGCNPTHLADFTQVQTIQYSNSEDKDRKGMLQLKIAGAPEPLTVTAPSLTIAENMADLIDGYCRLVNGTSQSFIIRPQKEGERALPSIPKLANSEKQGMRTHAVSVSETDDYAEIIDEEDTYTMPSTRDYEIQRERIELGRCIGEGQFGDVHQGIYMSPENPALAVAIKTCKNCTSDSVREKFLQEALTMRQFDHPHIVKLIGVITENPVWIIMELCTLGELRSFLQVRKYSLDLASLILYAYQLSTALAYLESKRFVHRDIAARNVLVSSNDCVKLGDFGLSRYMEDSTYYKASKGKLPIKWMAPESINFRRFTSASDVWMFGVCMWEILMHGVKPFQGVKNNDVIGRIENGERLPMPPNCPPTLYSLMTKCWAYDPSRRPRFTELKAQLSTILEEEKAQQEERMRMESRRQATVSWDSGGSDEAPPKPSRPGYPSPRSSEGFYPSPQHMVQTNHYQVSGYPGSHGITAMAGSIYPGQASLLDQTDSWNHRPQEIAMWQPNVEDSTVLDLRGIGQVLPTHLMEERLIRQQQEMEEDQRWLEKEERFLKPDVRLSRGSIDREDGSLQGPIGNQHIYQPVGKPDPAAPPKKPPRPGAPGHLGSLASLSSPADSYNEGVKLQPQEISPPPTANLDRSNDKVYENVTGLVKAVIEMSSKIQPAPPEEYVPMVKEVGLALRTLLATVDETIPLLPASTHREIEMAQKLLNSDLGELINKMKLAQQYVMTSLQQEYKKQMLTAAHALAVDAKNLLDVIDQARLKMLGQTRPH
In series [18] the test system is A-375. As to the kind of experiment: Binding affinity to RACK1 in human A-375 cells assessed as prevention of pronase-mediated protein degradation at 5 to 20 uM preincubated for 60 mins followed by enzyme addition and measured after 25 mins by immunoblotting based DARTS assay. The class given is cell-based. Particulars: dose 5-20 µM, time 85.0 min.
The target in series [19] is Signal transducer and activator of transcription 3 (Homo sapiens) (UniProt P40763). The experiment in a line: Inhibition of STAT3 in human A-375 cells assessed as decrease in Bcl2 protein level at 0.5 to 4 uM measured after 24 hrs by western blot analysis. The class given is cell-based. Particulars: dose 0.5-4 µM.
Series [20] has as its target Focal adhesion kinase 1 (Homo sapiens) (UniProt Q05397). The experiment in a line: Inhibition of FAK in human A-375 cells assessed as reduction in Src activation at 0.5 to 4 uM measured after 24 hrs by Western blotting analysis. The format is cell-based. Particulars: dose 0.5-4 µM.

Turning to `Cc1cc(=O)cc2c3c1[C@@H]1O[C@H]4[C@@H]5OC(=O)[C@](C[C@@H]2OC(=O)COCCOCCNC(=O)CCCC[C@@H]2SC[C@@H]6NC(=O)N[C@@H]62)([C@@H]4C)[C@H]3[C@@H]51`, the remaining at 24 h, 200 µM in series [1] is 59.2%. In the series on A-375 [2], the result was Active.
On to `C#CCCC1(CCC(=O)O[C@H]2C[C@]34C(=O)O[C@H]5[C@H](O[C@H]6c7c(C)cc(=O)cc2c7[C@@H]3[C@@H]56)[C@H]4C)N=N1`, for which the degraded at 24 h, 200 µM in [3] is 13.6%. Moreover, the inhibition entry in the series on A-375 [4] and in the series with A-375 [6] was “Dose-Dependent Effect” in each case. In addition, the result with A-375 [5] was inactive. The result in the series with A-375 [2] and in the series with A-375 [7] was Active.
`Cc1cc(=O)cc2c3c1[C@@H]1O[C@H]4[C@@H]5OC(=O)[C@](C[C@@H]2OC(=O)COCCOCCOCCOCCNC(=O)CCCC[C@@H]2SC[C@@H]6NC(=O)N[C@@H]62)([C@@H]4C)[C@H]3[C@@H]51`: the outcome in the series with A-375 [8] was inactive.
With `Cc1cc(=O)cc2c3c1[C@@H]1O[C@H]4[C@@H]5OC(=O)[C@](CC2)([C@@H]4C)[C@H]3[C@@H]51` [HAINANOLIDE], the inhibition result (in the series with A-375 [9]; in series [10]; with A-375 [13]; with A-375 [15]; in [16]; in series [19]) was “Active” each time. Besides, in series [20], the inhibition result is “Active”. Further, the IC50 in the series on A-375 [11] stood at 39.7 µM. In addition, the inhibition entry (in the series on A-375 [12]; in the series with A-375 [4]; in the series on A-375 [6]; in series [17]) was “Dose-Dependent Effect” in each case. Besides, the result in the series on A-375 [14] and in the series with A-375 [18] was Active.
